Source: patent publication US6689343B1, “Hemostatic and acid etch compositions containing sucralose” (Ultradent Products, Inc., priority 2002, dated 2004)

Experiment: Storage stability of sucralose in the acidic composition
Format: physicochemical
Conditions: highly acidic in water

## OC[C@H]1O[C@H](O[C@]2(CCl)O[C@H](CCl)[C@@H](O)[C@@H]2O)[C@H](O)[C@@H](O)[C@H]1Cl [sucralose, 1,6-dichloro-1,6-dideoxy-β-D-fructo-furanosyl-4-chloro-4-deoxy-α-D-galactopyranoside]
  stability in the presence of hemostatic or dental etching agents: stable
